Experimental data reported in US9693556B2, “Herbicidal pyridazinone derivatives” (SYNGENTA LIMITED, priority 2011, dated 2017).

Columns and labels:
Assay type in all cases: in vivo
[1] = tested on: Echinochloa crus-galli (ECHCG); assay: Post-emergence herbicidal glasshouse test on Echinochloa crus-galli; conditions: post-emergence; 1000 g/h; evaluated after 13 days
In short: (§1)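 Read-out: percentage herbicidal damage 13 days after spraying, given on a five-point scale (5=80-100%, 4=60-79%, 3=40-59%, 2=20-39%, 1=0-19%). Pots of standard soil; application at 1000 g/h, one day post-sowing for pre-emergence, eight days for post-emergence.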

[2] = tested on: Amaranthus retoflexus (AMARE); assay: Post-emergence herbicidal glasshouse test on Amaranthus retoflexus; conditions: post-emergence; 1000 g/h; evaluated after 13 days
In short: as §1

[3] = tested on: Ipomoea hederacea (IPOHE); assay: Pre-emergence herbicidal glasshouse test on Ipomoea hederacea; conditions: pre-emergence; 1000 g/h; evaluated after 13 days
In short: as §1

[4] = tested on: Amaranthus retoflexus (AMARE); assay: Pre-emergence herbicidal glasshouse test on Amaranthus retoflexus; conditions: pre-emergence; 1000 g/h; evaluated after 13 days
In short: as §1

[5] = tested on: Echinochloa crus-galli (ECHCG); assay: Pre-emergence herbicidal glasshouse test on Echinochloa crus-galli; conditions: pre-emergence; 1000 g/h; evaluated after 13 days
In short: as §1

[6] = tested on: Alopecurus myosuroides (ALOMY); assay: Pre-emergence herbicidal glasshouse test on Alopecurus myosuroides; conditions: pre-emergence; 1000 g/h; evaluated after 13 days
In short: as §1

Setaria faberi (SETFA) [7] = assay: Post-emergence herbicidal glasshouse test on Setaria faberi; conditions: post-emergence; 1000 g/h; evaluated after 13 days
In short: as §1

Setaria faberi (SETFA) [8] = assay: Pre-emergence herbicidal glasshouse test on Setaria faberi; conditions: pre-emergence; 1000 g/h; evaluated after 13 days
In short: as §1

Solanum nigrum (SOLNI) [9] = assay: Post-emergence herbicidal glasshouse test on Solanum nigrum; conditions: post-emergence; 1000 g/h; evaluated after 13 days
In short: as §1

[10] = tested on: Alopecurus myosuroides (ALOMY); assay: Post-emergence herbicidal glasshouse test on Alopecurus myosuroides; conditions: post-emergence; 1000 g/h; evaluated after 13 days
In short: as §1

[11] = tested on: Ipomoea hederacea (IPOHE); assay: Post-emergence herbicidal glasshouse test on Ipomoea hederacea; conditions: post-emergence; 1000 g/h; evaluated after 13 days
In short: as §1

Solanum nigrum (SOLNI) [12] = assay: Pre-emergence herbicidal glasshouse test on Solanum nigrum; conditions: pre-emergence; 1000 g/h; evaluated after 13 days
In short: as §1

Structure (SMILES) | POST Application ECHCG herbicidal damage (five point scale) [1] | POST Application AMARE herbicidal damage (five point scale) [2] | PRE Application IPOHE herbicidal damage (five point scale) [3] | PRE Application AMARE herbicidal damage (five point scale) [4] | PRE Application ECHCG herbicidal damage (five point scale) [5] | PRE Application ALOMY herbicidal damage (five point scale) [6] | POST Application SETFA herbicidal damage (five point scale) (Setaria faberi (SETFA) [7]) | PRE Application SETFA herbicidal damage (five point scale) (Setaria faberi (SETFA) [8]) | POST Application SOLNI herbicidal damage (five point scale) (Solanum nigrum (SOLNI) [9]) | POST Application ALOMY herbicidal damage (five point scale) [10] | POST Application IPOHE herbicidal damage (five point scale) [11] | PRE Application SOLNI herbicidal damage (five point scale) (Solanum nigrum (SOLNI) [12])
Cc1c(Cl)cccc1-c1c(C(F)(F)F)ccn(-c2cnn(C)c(=O)c2O)c1=O [Compound 7.030] | 5 (5=80-100% damage) | 5 (5=80-100% damage) | 4 (4=60-79% damage) | 5 (5=80-100% damage) | 5 (5=80-100% damage) | 5 (5=80-100% damage) | 5 (5=80-100% damage) | 4 (4=60-79% damage) | 5 (5=80-100% damage) | 5 (5=80-100% damage) | 5 (5=80-100% damage) | 5 (5=80-100% damage)
Cn1ncc(-n2ccc(C(F)(F)F)c(-c3ccc(C#N)cc3)c2=O)c(O)c1=O [Compound 7.031] | 5 (5=80-100% damage) | 5 (5=80-100% damage) | 5 (5=80-100% damage) | 5 (5=80-100% damage) | 5 (5=80-100% damage) | 5 (5=80-100% damage) | 5 (5=80-100% damage) | 5 (5=80-100% damage) | 5 (5=80-100% damage) | 5 (5=80-100% damage) | 5 (5=80-100% damage) | 5 (5=80-100% damage)
Cc1ccc(Cl)c(-c2c(C(F)(F)F)ccn(-c3cnn(C)c(=O)c3O)c2=O)c1 [Compound 7.032] | 5 (5=80-100% damage) | 5 (5=80-100% damage) | 5 (5=80-100% damage) | 5 (5=80-100% damage) | 5 (5=80-100% damage) | 4 (4=60-79% damage) | 5 (5=80-100% damage) | 5 (5=80-100% damage) | 5 (5=80-100% damage) | 3 (3=40-59% damage) | 5 (5=80-100% damage) | 5 (5=80-100% damage)
COc1ccc(-c2c(C(F)(F)F)ccn(-c3cnn(C)c(=O)c3O)c2=O)cc1 [Compound 7.033] | 5 (5=80-100% damage) | 5 (5=80-100% damage) | 4 (4=60-79% damage) | 5 (5=80-100% damage) | 5 (5=80-100% damage) | 5 (5=80-100% damage) | 5 (5=80-100% damage) | 5 (5=80-100% damage) | 5 (5=80-100% damage) | 5 (5=80-100% damage) | 3 (3=40-59% damage) | 5 (5=80-100% damage)
C=Cc1ccccc1-c1c(C(F)(F)F)ccn(-c2cnn(C)c(=O)c2O)c1=O [Compound 7.034] | 3 (3=40-59% damage) | 5 (5=80-100% damage) | 1 (1=0-19% damage) | 5 (5=80-100% damage) | 1 (1=0-19% damage) | 2 (2=20-39% damage) | 3 (3=40-59% damage) | 1 (1=0-19% damage) | 5 (5=80-100% damage) | 1 (1=0-19% damage) | 2 (2=20-39% damage) | 5 (5=80-100% damage)
Cn1ncc(-n2ccc(C(F)(F)F)c(-c3ccc(C(F)(F)F)cc3)c2=O)c(O)c1=O [Compound 7.035] | 5 (5=80-100% damage) | 5 (5=80-100% damage) | 3 (3=40-59% damage) | 5 (5=80-100% damage) | 5 (5=80-100% damage) | 5 (5=80-100% damage) | 5 (5=80-100% damage) | 5 (5=80-100% damage) | 5 (5=80-100% damage) | 5 (5=80-100% damage) | 4 (4=60-79% damage) | 5 (5=80-100% damage)
CSc1ccc(-c2c(C(F)(F)F)ccn(-c3cnn(C)c(=O)c3O)c2=O)cc1 [Compound 7.036] | 4 (4=60-79% damage) | 5 (5=80-100% damage) | 4 (4=60-79% damage) | 5 (5=80-100% damage) | 1 (1=0-19% damage) | 2 (2=20-39% damage) | 3 (3=40-59% damage) | 2 (2=20-39% damage) | 5 (5=80-100% damage) | 2 (2=20-39% damage) | 4 (4=60-79% damage) | 5 (5=80-100% damage)
Cc1cc(Cl)ccc1-c1c(C(F)(F)F)ccn(-c2cnn(C)c(=O)c2O)c1=O [Compound 7.038] | 5 (5=80-100% damage) | 5 (5=80-100% damage) | 4 (4=60-79% damage) | 5 (5=80-100% damage) | 5 (5=80-100% damage) | 5 (5=80-100% damage) | 3 (3=40-59% damage) | 3 (3=40-59% damage) | 5 (5=80-100% damage) | 5 (5=80-100% damage) | 5 (5=80-100% damage) | 5 (5=80-100% damage)
Cn1ncc(-c2cnc(C(F)(F)F)nc2N2CCOCC2)c(O)c1=O [Compound 8.001, 4-hydroxy-2-methyl-5-[4-morpholino-2-(trifluoromethyl)pyrimidin-5-yl]pyridazin-3-one] | 5 (5=80-100% damage) | 5 (5=80-100% damage) | 3 (3=40-59% damage) | 5 (5=80-100% damage) | 5 (5=80-100% damage) | 1 (1=0-19% damage) | 2 (2=20-39% damage) | 2 (2=20-39% damage) | 5 (5=80-100% damage) | 1 (1=0-19% damage) | 5 (5=80-100% damage) | 5 (5=80-100% damage)
Cn1ncc(-c2ccc(C(F)(F)F)n(-c3cccc(C(F)(F)F)n3)c2=O)c(O)c1=O [Compound 9.001] | 4 (4=60-79% damage) | 3 (3=40-59% damage) | 1 (1=0-19% damage) | 2 (2=20-39% damage) | 2 (2=20-39% damage) | 3 (3=40-59% damage) | 4 (4=60-79% damage) | 1 (1=0-19% damage) | 4 (4=60-79% damage) | 4 (4=60-79% damage) | 1 (1=0-19% damage) | 1 (1=0-19% damage)
